Reference: PMC12483202, “Pharmacokinetic profile of oral firocoxib in the koala (Phascolarctos cinereus)” (PLOS One, 2025)
Where two headings read alike, the source gives them in different places.

How the values were obtained:
koalas = assay: Clinical observations, haematology and biochemistry after repeat dosing; format: in vivo, koala (Phascolarctos cinereus); details: for Phos: reference interval 0.87-2.47
Method: Samples were centrifuged at 1500 x g for 10 minutes, within 1 h of collection; the plasma was immediately stored at –80 °C and protected from light until drug quantification. […] Clinical observations for the presence of adverse effects in the animals treated included measurement of vital signs, appetite, body weight, faecal consistency and overall behaviour and mobility.

cyclooxygenase-2 = details: based on in vitro studies in other species; cited from earlier work
osteoarthritis in horses = test system: osteoarthritis in horses; set-up: method as in PMID 36684818; details: cited from earlier work
[1] = cited from earlier work
[2] = set-up: method as in ref [9] of S9 Table; details: Rhinoceros (5); PO 0.1 mg/kg; ref [9] of S9 Table; cited from earlier work
elephant plasma proteins = test system: elephant plasma proteins; set-up: method as in PMID 37428699, PMID 38453490; details: African and Asian elephants; rapid equilibrium dialysis; cited from earlier work
equine plasma proteins = test system: equine plasma proteins; set-up: method as in PMID 17472652; details: radiolabelled firocoxib; cited from earlier work
[3] = cited from earlier work; remark: listed apart in the source
[4] = test system: equine ischaemic intestinal injury; set-up: method as in PMID 19645580; details: cited from earlier work
[5] = set-up: method as in ref [6] of S9 Table; details: Pigs (7); PO 4.0 mg/kg; ref [6] of S9 Table; cited from earlier work
[6] = set-up: method as in ref [5] of S9 Table; details: Camels (5); IV 0.1 mg/kg; ref [5] of S9 Table; cited from earlier work
[7] = Non-specific binding to the filtration membrane (phosphate buffered saline); format: in vitro ADME; details: at a concentration of 250 ng/mL
Method: (§1) The same concentrations of firocoxib were added to phosphate buffered saline and underwent ultrafiltration to determine non-specific binding to the filtration membrane. Thereafter the corrected percentage of substrate binding to plasma proteins was calculated as: […]

cats = test system: cats; set-up: method as in PMID 16111170; details: cited from earlier work
[8] = Firocoxib binding to plasma proteins, ultrafiltration; format: in vitro ADME; details: pooled plasma, pH 7.4, firocoxib 500 ng/mL, corrected for non-specific binding, thawed frozen plasma, read-out: corrected percentage bound to plasma proteins (converted)
Method: The percentage of firocoxib bound to koala plasma proteins was determined using the ultrafiltration method using a modified protocol. As firocoxib plasma protein binding (PPB) has been reported in horses, archived horse plasma (obtained under The University of Sydney approved animal ethics protocol: 2015/736) was tested simultaneously alongside koala plasma to compare the percentage of firocoxib bound to equine plasma proteins. The total plasma protein concentration in the koala samples was determined using Vetscan® VS2 chemistry analyser (Comprehensive Diagnostic Profile), (Zoetis Australia Pty Ltd., Rhodes, NSW). Firocoxib dissolved in dimethyl sulfoxide (to reduce non-specific binding) at a concentration of 500 ng/mL, was added to 1 mL of thawed pooled blank koala or horse plasma, the pH was adjusted to 7.4, and then incubated in a water bath at 37 °C for 30 min. […] Both fractions were analysed by HPLC as described above. All samples were analysed as duplicates. The percentage of substrate binding to plasma proteins was calculated using the equation: […]
as §1

[9] = test system: urate crystal-induced synovitis in dogs; set-up: method as in ref 38 = [38]; 38 Dauteloup C , Pichou C , Beugnet F . Assessment of the efficacy of firocoxib and robenacoxib in an induced synovitis model of acute arthritis in dogs . International Journal of Applied Research in; details: cited from earlier work
COX-1:COX-2 = details: cited from earlier work
[10] = Dogs (40), PO 5 mg/kg, ref [1] of S9 Table

## CC1(C)OC(=O)C(OCC2CC2)=C1c1ccc(S(C)(=O)=O)cc1 [firocoxib]
koalas; in vivo
  appetite, behaviour and mobility: no change from normal appetite, behaviour and mobility
  body weight: maintained stable body weight
koalas; koala K2, 72 h, after repeated dosing 5 mg/kg every 12 h
  Phos: 1.48 mmol/L
koalas; koala K6, 72 h, after repeated dosing 5 mg/kg every 12 h
  Phos: 1.37 mmol/L
koalas; koala K6, 72 h, after repeated dosing 5 mg/kg every 12 h, reference interval 132-143
  Na: 139 mmol/L
cyclooxygenase-2
  target plasma concentration to inhibit 80% of cyclooxygenase-2 activity (IC80): approximately 100 ng/mL
Osteoarthritis in horses
  efficacy for controlling pain and inflammation associated with osteoarthritis: good efficacy
[1]; Dogs (6), PO 5 mg/kg, ref [2] of S9 Table
  t1/2: 6.5 h
[1]; [10]
  Cmax: 520 ng/mL
  Tmax: 1.25 h
  t1/2: 5.9 h
[1]; dogs
  Tmax: 1.25 h
  plasma elimination half-life (mean): 5.90 h
[1]; dogs, oral 5 mg/kg
  mean Cmax: 520 ng/mL
[2]
  Cmax: 15.7 ng/mL
  t1/2: 4.96 h
Elephant plasma proteins
  binding to elephant plasma proteins: 45%
Equine plasma proteins
  bound in horse plasma: 97%
[3]; at physiological pH
  ionizability: low ionizability
[3]
  -log10 dissociation constant (pka): 19.69
  solubility in dimethyl sulfoxide: highly soluble
  solubility in water: insoluble
[4]; equine ischaemic intestinal injury
  visceral analgesia: efficacious visceral analgesia
[4]; firocoxib compared with flunixin meglumine
  mucosal barrier function recovery: superior mucosal barrier function recovery
[5]
  Cmax: 60 ng/mL
  Tmax: 7.41 h
  t1/2: 24.075 h
[6]
  t1/2: 5.75 h
[7]
  non-specific binding of firocoxib: 4.06%
cats
  antipyretic activity: antipyretic activity
[8]; horse plasma
  fraction unbound at 30 min, 500 ng/mL: 0.147
[8]; koala plasma
  fraction unbound at 30 min, 500 ng/mL: 0.153
[9]
  peak vertical force and weight-bearing capacity: efficacy in improving the peak vertical force and weight-bearing capacity
COX-1:COX-2; dogs, whole blood
  COX-1:COX-2 inhibition ratio: 384–427
COX-1:COX-2; more potent than carprofen in COX-2 selectivity
  COX-2 selectivity relative to carprofen: 30 fold
